Test results published in ChEMBL document CHEMBL1201862, “PubChem BioAssay data set” (2004).
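Five compound concentrations were applied to cells in 96-well plates for 48 hours; endpoints were derived by simple linear interpolation of the resulting dose-response curve. The concentration for 50% growth inhibition is given as GI50.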 Calls of active or inactive are those of the source. No stated cut-off is given here; in the data, active = GI50 up to about 1.1 µM and inactive = higher.

Assays:
Experiment in all cases: inhibition of tumour cell growth, NCI panel, 48 h
A549 = test system: A549
LOX IMVI = test system: LOX IMVI
K562 = test system: K562
SK-OV-3 = test system: SK-OV-3
RPMI-8226 = test system: RPMI-8226
HCT-116 = test system: HCT-116
IGROV-1 = test system: IGROV-1
UO-31 = test system: UO-31
SK-MEL-28 = test system: SK-MEL-28
OVCAR-3 = test system: OVCAR-3
UACC-257 = test system: UACC-257
NCI-H460 = test system: NCI-H460
SK-MEL-5 = test system: SK-MEL-5
SR = test system: SR
SNB-75 = test system: SNB-75
A498 = test system: A498
SF-539 = test system: SF-539
SK-MEL-2 = test system: SK-MEL-2

| Compound | GI50 (A549) | GI50 (LOX IMVI) | GI50 (K562) | GI50 (SK-OV-3) | GI50 (RPMI-8226) | GI50 (HCT-116) | GI50 (IGROV-1) | GI50 (UO-31) | GI50 (SK-MEL-28) | GI50 (OVCAR-3) | GI50 (UACC-257) | GI50 (NCI-H460) | GI50 (SK-MEL-5) | GI50 (SR) | GI50 (SNB-75) | GI50 (A498) | GI50 (SF-539) | GI50 (SK-MEL-2) |
| --- | --- | --- | --- | --- | --- | --- | --- | --- | --- | --- | --- | --- | --- | --- | --- | --- | --- | --- |
| NC(=O)N/N=C/C(=C/Nc1ccccc1)[N+](=O)[O-] | > 100 µM (inactive) | > 100 µM (inactive) | > 100 µM (inactive) | > 100 µM (inactive) | > 100 µM (inactive) | > 100 µM (inactive) | > 100 µM (inactive) | > 100 µM (inactive) | > 100 µM (inactive) | > 100 µM (inactive) | > 100 µM (inactive) | 89.1 µM (inactive) | > 100 µM (inactive) | > 100 µM (inactive) |  |  |  |  |
| CN(C)CCC(/C=C/c1ccccc1)=N\Nc1ccccc1 | 1.73 µM (inactive) | 0.0493 µM (active) | 0.325 µM (active) | 3.56 µM (inactive) | 0.853 µM (active) | 1.9 µM (inactive) | 2.82 µM (inactive) | 1.4 µM (inactive) | 1.8 µM (inactive) | 2.33 µM (inactive) | 2.42 µM (inactive) | 1.41 µM (inactive) | 3.48 µM (inactive) |  | 3.48 µM (inactive) | 12.5 µM (inactive) | 1.82 µM (inactive) |  |
| O=C1c2ccccc2C(=O)N1CCn1ccc(NC(c2ccccc2)(c2ccccc2)c2ccccc2)nc1=O | 28.2 µM (inactive) | 17.1 µM (inactive) | 20.3 µM (inactive) | 43.8 µM (inactive) | 19.8 µM (inactive) | 17.5 µM (inactive) | 22.2 µM (inactive) | 21.2 µM (inactive) | 18.2 µM (inactive) | 24.3 µM (inactive) | 18 µM (inactive) | 23.6 µM (inactive) | 17.5 µM (inactive) |  | 21.8 µM (inactive) | 18.2 µM (inactive) | 16 µM (inactive) | 20.5 µM (inactive) |
| COc1ccc([C@@]2(O)c3c(ccc(O)c3OC)[C@H]2OC)c(OC)c1 | 85.1 µM (inactive) |  | 36.5 µM (inactive) | 28.6 µM (inactive) | 30.1 µM (inactive) | 33.5 µM (inactive) | > 100 µM (inactive) | 69.3 µM (inactive) | 47.8 µM (inactive) | 68.2 µM (inactive) | > 100 µM (inactive) | > 100 µM (inactive) | 48.6 µM (inactive) | 35.6 µM (inactive) | 39.6 µM (inactive) | > 100 µM (inactive) |  | 63.4 µM (inactive) |
| O=C(NC1C2CC3CC(C2)CC1C3)c1ccncn1 (stereo unspecified) | > 100 µM (inactive) |  | > 100 µM (inactive) |  |  | > 100 µM (inactive) | > 100 µM (inactive) | > 100 µM (inactive) | > 100 µM (inactive) | > 100 µM (inactive) | > 100 µM (inactive) | > 100 µM (inactive) | > 100 µM (inactive) |  | > 100 µM (inactive) | > 100 µM (inactive) | > 100 µM (inactive) | > 100 µM (inactive) |
| COc1ccc(C23c4ccc(OC)cc4CC2(c2ccc([N+](=O)[O-])cc2)Cc2cc(OC)ccc23)cc1 (stereo unspecified) | > 21.2 µM (inactive) | > 21.3 µM (inactive) | > 37.6 µM (inactive) | > 28.2 µM (inactive) | > 27.4 µM (inactive) | > 37.2 µM (inactive) | > 21.5 µM (inactive) | > 24.3 µM (inactive) | > 17.9 µM (inactive) | > 39.2 µM (inactive) | > 51.3 µM (inactive) | > 89.1 µM (inactive) | > 21.7 µM (inactive) |  | > 83.6 µM (inactive) | > 29.7 µM (inactive) | > 14.2 µM (inactive) | > 74.1 µM (inactive) |
| CCN(CC)CC(=O)N1CCc2c([nH]c3ccccc23)C1c1cccnc1 (stereo unspecified) | > 100 µM (inactive) | > 100 µM (inactive) | > 100 µM (inactive) | > 100 µM (inactive) | 71.8 µM (inactive) | > 100 µM (inactive) | > 100 µM (inactive) | 26.9 µM (inactive) | > 100 µM (inactive) | > 100 µM (inactive) | > 100 µM (inactive) | > 100 µM (inactive) | > 100 µM (inactive) |  | 73.6 µM (inactive) | > 100 µM (inactive) | > 100 µM (inactive) |  |
| O=c1c2ccc3cccc4c(=O)cc(c5ccccc15)-c2c34 | > 100 µM (inactive) | 29.2 µM (inactive) | 54.5 µM (inactive) | > 100 µM (inactive) |  | > 100 µM (inactive) | > 100 µM (inactive) | > 100 µM (inactive) | > 100 µM (inactive) | 28.2 µM (inactive) | > 100 µM (inactive) | > 100 µM (inactive) | 57.4 µM (inactive) | > 100 µM (inactive) | > 100 µM (inactive) | > 100 µM (inactive) |  | 22 µM (inactive) |
